The structures appear in SMILES notation.

For assay [1], the system named is NF-κB (p65). Nature of the assay: Activation of NF-κB (nuclear translocation of p65) in HAEC stimulated with high glucose. It is filed as cell-based, human. The note with it: pre-treatment 5 and 10 μM 24 h, 25 mM glucose 2 h, FIG. 1. On the procedure:
In the present invention, the term “suppression of NF-κB activation” means suppression of the translocation of NF-κB into the nucleus. The suppression of the translocation of NF-κB into the nucleus can be confirmed by the method described in Example 1. To be specific, a test substance is added to a culture medium of human aortic endothelial cells, the cells are incubated for a predetermined time, the nucleus is extracted from the aforementioned cells stimulated with glucose, and activated NF-κB (p65) translocated into the nucleus is detected. Using the cells before glucose stimulation, wherein NF-κB is not activated, as a negative control and the cells stimulated with glucose and free of addition of a test substance as a positive control, when the detection level of the aforementioned p65 is closer to the negative control than to the positive control, NF-κB activation is evaluated to have been suppressed.
Human aortic endothelial cells (HAEC) were purchased from Clonetics Corp, and the cells cultured for 3-4 passages (37° C., under 5% carbon dioxide gas atmosphere) were used for the experiment. […] Nucleus was extracted from the cells using Nuclear Extract Kit (Active Motif), and then the activated NF-κB (p65) translocated into the nucleus was detected by TransAM NF-κB p65 Kit (Active Motif).

The subject of assay [2] is MCP-1 mRNA. Nature of the assay: MCP-1 mRNA expression in HAEC by real-time PCR. It is filed as cell-based, human. To be noted: 10 μM 24 h, 25 mM glucose 3 h, GAPDH internal standard, FIG. 3B. The procedure:
HAEC cells pre-treated with 10 μM of CS or FS for 24 hours were stimulated with 25 mM glucose for 3 hours, and total RNA was extracted with Isogenkit (NIPPON GENE CO., LTD.). From 1 μg of RNA, cDNA was synthesized using 100 U/mL of reverse transcriptase (TAKARA BIO INC.) and 0.1 μM of oligo (dT)-adapter (TAKARA BIO INC.) (total volume of reaction mixture; 50 μL) (42° C., 40 minutes). Real-time PCR was performed using 7300 Real Time PCR system (Applied Biosystems Japan Ltd.) and the PCR product was detected by SYBER Green I.
PCR reaction composition (RT-PCRkit, TAKARA BIO INC.): 12.5 μL Premix Ex Taq, 2.5 μL SYBER Green I, synthesis primer, ROX reference dye, cDNA (corresponding to 20 ng of total RNA), final reaction volume; 25 μL
Primers having the following sequences were used.
PCR was conducted under the following conditions.
thermal denaturation: at 95° C. for 15 seconds, extension reaction: 40 cycles (3 seconds at 95° C., 31 seconds at 60° C.)
Expression amounts of VCAM-1 and MCP-1 mRNA were calculated using GAPDH as the internal standard.
A general note: Quantitative PCR measures a nucleic acid by following its amplification.

Assay [3] deals with large intestine tissue of IBD model mice. Nature of the assay: IBD model mouse: large intestine histopathology (PAS staining). It is filed as in vivo. The note with it: vs Control group, FIG. 14. The source says: (§1) At the end of the test described in Example 10, the large intestine (caecum—anus) was cut into about 1 cm pieces from the center to the anus side to give 3 sections in total. One of them was fixed with 10% formalin solution and two were frozen in liquid nitrogen. The large intestine fixed with formalin was embedded in paraffin, and sliced to give transversely sectioned specimens. The specimens were stained by a PAS (Periodic acid Schiff) staining method, and histopathological images were observed. On the other hand, total RNA was extracted from the frozen large intestine tissue with ISOGEN (NIPPON GENE CO., LTD.) Total RNA (2 μg) was subjected to a reverse transcription reaction using a SYBR ExScript™ RT-PCR kit (TaKaRa) and, using this as a template, quantitative realtime PCR was performed using IL-1β, TNF-α and GAPDH. The primers used for the analysis were as follows.

For assay [4], the system named is VCAM-1. Nature of the assay: VCAM-1 protein expression on HAEC cell membrane (immunostaining). It is filed as cell-based, human. The note with it: 0.1-10 μM 24 h, 25 mM glucose 4 h, FIG. 4A. The procedure: HAEC cells proliferated to confluence in a 96 well microplate were pre-incubated with 0.1-10 μM serotonin derivative for 24 hours, and stimulated with 25 mM glucose for 4 hours. The cell layer was washed with Hanks solution, and then anti-VCAM-1 monoclonal antibody (Becton Dickinson) was added and the cells were incubated at 37° C. for 1 hour. After washing, the cells were incubated with secondary antibody (peroxidase-labeled anti-mouse IgG goat F(ab′)2 fragment; Cappel) for 1 hour. A color development substrate (o-phenylenediamine dihydrochloride) was added and, about 30 minutes later (room temperature), the absorbance (492 nm) of each well was quantified with a microplate reader. The MCP-1 concentration of the medium was quantified with Human MCP-1 Immunoassay Kit (BioSource International).

In assay [5] the test system is IL-1β mRNA. Briefly: IBD model mouse: IL-1β mRNA in large intestine tissue (realtime PCR). The note with it: IBD model mice, vs Control group, GAPDH internal standard; FIG. 15. It is filed as in vivo.
Description: as §1
(§2) Template DNA (2 μl), SYBR Premix Ex Taq™ (TaKaRa, 10 μl), ROX Reference Dye (0.4 μl), 100 μM forward primer (0.04 μl), 100 μM reverse primer (0.04 μl) and sterile water (7.52 μl) were mixed on ice and, using Applied Biosystems 7900HT Fast realtime PCR system, the mixture was heated at 95° C. for 10 seconds, followed by 40 cycles of 95° C., 5 seconds and 60° C., 34 seconds, whereby the DNA was amplified. Using GAPDH as the internal standard, IL-1β and TNF-α expression levels were evaluated.

For assay [6], the system named is U-937 cells / HAEC. Nature of the assay: Migration capability of monocyte (U-937), Transwell system with HAEC. It is filed as cell-based, human. The note with it: HAEC pre-incubated 5 or 10 μM 24 h, 25 mM glucose 4 h; FIG. 7. The procedure:
The migration capability of monocyte was measured using the Transwell system (pore size 3 μm; BD Biosciences). HAEC cultured on a transwell placed in a 24 well microplate was pre-incubated with 5 or 10 μM serotonin derivative for 24 hours, and stimulated with 25 mM glucose for 4 hours. 200 μL of U-937 cell suspension (10^6 cells/mL) was added to the transwell and the cells were incubated as-is at 37° C. for 2 hours. The number of cells migrated to the lower chamber of the transwell through the membrane was counted under a microscope (20 fields). The experiment was repeated three times, and the results are shown as an average value thereof. An experiment using fluorescence-labeled U-937 cells was also performed. BCECF-AM-labeled U-937 cells were plated in the upper chamber of the transwell and incubated at 37° C. for 2 hours. The cells migrated to the lower chamber through the membrane were collected in 1 mL of PBS buffer and treated with 1% Triton X for 2 hours. The fluorescence derived from the migrated cells was quantified (Ex. 503 nm, Em. 525 nm) using a fluorescence plate reader (Bio-Rad, Fluoromark).

For assay [7], the system named is TNF-α mRNA. Nature of the assay: IBD model mouse: TNF-α mRNA in large intestine tissue (realtime PCR). It is filed as in vivo. The note with it: IBD model mice, vs Control group, GAPDH internal standard; FIG. 15.
Description: as §1, §2

For the molecule `COc1cc(/C=C/C(=O)NCCc2c[nH]c3ccc(O)cc23)ccc1O` [FS, N-feruloyl serotonin], the “nuclear translocation of p65 (activation of NF-κB)” value in assay [1] is on record as “significantly suppressed”. Also, the “expression amount of MCP-1 mRNA” value in assay [2] is “significantly suppressed the increase”. In assay [3], the “number of normal goblet cells” value is listed as “increased number of normal goblet cells” and the “thickening of the large intestine mucosal epithelium” value is listed as “suppressed thickening”. The “VCAM-1 expression on the cell membrane” value in assay [4] is listed as “suppressed the induction of their expressions in a dose-dependent manner”. Further, the “mRNA expression level of IL-1β in large intestine tissue” value in assay [5] was “significant decrease”. The “number of U-937 cells migrated into subendothelium space (cell count)” value in assay [6] was “significantly decreased”. For the same molecule, the “mRNA expression level of TNF-α in large intestine tissue” value in assay [7] is given as “tendency toward decrease”.
